Patent publication US7759313B2, “Induction method for cell differentiation” (Obschetstvo S Ogranichennoi Otvetstvennostiyu …, priority 2002, dated 2010)
“And” between values parts separate entries of the source, which are not always exact repeats. Equal values may be shown once.

How the values were obtained:
human M-6 melanoma = experiment: Human M-6 melanoma growth dynamics, Dicarbamine combined with chemotherapy; assay type: in vivo
Protocol: The study was conducted according to the technique described in Example 3. Dicarbamine was administered daily p.o. at the single dose 4.5 mg/kg for 3 weeks from the moment of tumor appearance (from day 15 to day 36). In the groups of combined treatment Dicarbamine was also administered daily at the single dose 4.5 mg/kg for 3 weeks (days 15-36) in combination with a single administration of anti-tumor cytostatic agents Cysplatin at dose 6 mg/kg i.v. (day 25) and Aranoza at dose 40 mg/kg i.p. (day 27). Cytostatic therapy with was commenced when the average tumor volume reached 200±62 mm^3. At days 18, 25, 33, 39, 46 and 53 from the transplantation tumor volumes were measured and the value Vt/Vt−1 was calculated and expressed as a percentage.

[1] = test system: murine B-16 melanoma cells; experiment: IRCP of B-16 cells, peptide derivatives at 100 μM; assay type: cell-based
Protocol: The study was conducted on a continuous cell culture of murine B-16 melanoma growing in the form of a monolayer in a tissue culture. α-Interferon, selected as a preparation of comparison, was administered at concentration 70 IU/ml.
The tested compounds were transferred into stock solution (1,000 μM), sterilized through filers with 0.22 μm pore diameter and then diluted down to a concentration of 100 μM.
The effect of compounds on cells was assessed on the basis of initial rate of cell proliferation (IRCP). This index was determined by numbering the number of cells in micro colonies during the first days following affection in “test” (with preparations) and “control” (without preparations) dishes, by analyzing 50 colonies in each of them.
Calculations of cell numbers in micro colonies were done for every “point”. Toxicity was judged by B-16 melanoma cell survival, which was determined by the ratio between numbers of the grown colonies in “test” and “control” dishes.

[2] = test system: hematopoietic cells of the bone marrow; experiment: Electronic microscopy of bone marrow of ovarian cancer patients during chemotherapy; assay type: in vivo, human; conditions: Cyclophosphane 600 mg/m^2 + Carboplatin 400 mg/m^2 along with Dicarbamine 100 mg
Protocol: The patients were divided into two equal groups: group I—patients who received the chemotherapy alone and group II—patients who received the chemotherapy along with Dicarbamine administration. […] The average chemotherapy course of one patient included 6 courses without Dicarbamine and 5.7 courses with Dicarbamine. In group II patients received the chemotherapy along with Dicarbamine dosing at a single dose 100 mg beginning 5 days before the first course and then until the beginning of next course at the same dose. […] Puncture biopsy of the bone marrow and peripheral blood for electronic microscopy were taken from patients prior to the chemotherapy and at the end of treatment course with Dicarbamine or without it. Fresh bone marrow puncture biopsies were placed on a slide plate and stirred many times with a stirring rod until small dense fragments were obtained. […] Semi-thin and ultra-thin slices were prepared on the LKB-III ultratome (Sweden). The semi-thin slices were stained with Methylene or Toluidine blue, ultra-thin slices were stained with an aqueous solution of uranyl acetate and lead citrate.

M-6 melanoma = experiment: Morphologic parameters of M-6 melanoma in nude mice (light microscopy); assay type: in vivo, mouse (mouse (mouse (mouse (mouse (mouse (mouse (mouse (mouse (mouse (mouse (mouse (human melanoma xenograft) melanoma xenograft) melanoma xenograft) melanoma xenograft) melanoma xenograft) melanoma xenograft) melanoma xenograft) melanoma xenograft) melanoma xenograft) melanoma xenograft) melanoma xenograft) melanoma xenograft)
Protocol: The study was conducted on 10-12 week old thymus free (nude) female Balb/C mice weighing 20-22 grams (breeding of the Russian Cancer Research Center (RCRC) named after N. N. Blokhin of the Russian Academy of Medical Sciences (RAMS)). A human melanoma strain earlier obtained from primary clinical material was taken from the bank of tumor strains of the RCRC of the RAMS for transplantation to thymus free “nude” mice. Tumor was disintegrated by Versen solution with vital Trypan blue staining and inoculated subcutaneously to mice in the amount of 1.6 million cells per mouse.
Dicarbamine was administered to mice intragastrically using a metal probe daily at dose 1.0 mg/kg beginning 4 days before the tumor inoculation and thereafter for 10-11 days (administration course up to 15 days). The mice were sacrificed with ether anesthesia in 12, 24 and 48 hours after the last administration.
Four morphologic parameters, such as the number of cells with pigment and the number of cells with apoptosis signs (capability to differentiate), the number of mitoses (proliferation activity), and necrosis area, were determined to monitor the degree of differentiation and proliferation of M-6 melanoma cells in the groups of control animals and in the Dicarbamine groups. These parameters were determined dynamically and correlated with general morphologic picture of a tumor growth as an integral sign. For this purpose, the tumors were removed from the mice, placed into formalin, and histologically processed for light microscopy.

[3] = Peripheral blood leukocytes formula under Cyclophosphamide; assay type: in vivo, mice; conditions: mouse, in vivo
Text: Two groups of mice are used.

[4] = 1.0 mg/kg daily, 12 hours since withdrawal
[5] = 1.0 mg/kg daily, 24 hours since withdrawal
[6] = 1.0 mg/kg daily, 48 hours since withdrawal

O=C(O)CCCC(=O)NCCc1c[nH]cn1 [Dicarbamine]
Vt/Vt−1, M ± m (human M-6 melanoma; Dicarbamine 4.5 mg/kg p.o. days 15-36 + Cysplatin 6 mg/kg i.v. + Aranoza 40 mg/kg i.p., 25 Day): 182.0±60.0% and 182.0 + 60.0** %
Vt/Vt−1, M ± m (human M-6 melanoma; Dicarbamine + Cysplatin + Aranoza, 33 Day): 191.0 + 71.0%
Vt/Vt−1, M ± m (human M-6 melanoma; Dicarbamine + Cysplatin + Aranoza, 39 Day): 24.5 + 17.4%
Vt/Vt−1, M ± m (human M-6 melanoma; Dicarbamine + Cysplatin + Aranoza, 46 Day): 28.7 + 9.8%
Vt/Vt−1, M ± m (human M-6 melanoma; Dicarbamine + Cysplatin + Aranoza, 53 Day): 8.0 + 30.6%
Vt/Vt−1, M ± m (human M-6 melanoma; Dicarbamine alone 4.5/94.5 mg/kg p.o. days 15-36, 25 Day): 166.0±93.0%
Vt/Vt−1, M ± m (human M-6 melanoma; Dicarbamine alone, 33 Day): 276.0 ± 104.0%
Vt/Vt−1, M ± m (human M-6 melanoma; Dicarbamine alone, 39 Day): 39.8 ± 27.3%
Vt/Vt−1, M ± m (human M-6 melanoma; Dicarbamine alone, 46 Day): 19.6 ± 17.5%
Vt/Vt−1, M ± m (human M-6 melanoma; Dicarbamine alone, 53 Day): 4.2 + 22.5%
Initial rate of cell proliferation (% cells/colony relative to the control) ([1]; 48 hours): 30.8 ± 2.8%
Initial rate of cell proliferation (% cells/colony relative to the control) ([1]; 72 hours): 28.2 ± 2.2%
cells with apoptosis signs in bone marrow puncture biopsies [2]: rarely observed
Apoptosis (M-6 melanoma; [4]): 0.1–0.2%
Cells with pigment (M-6 melanoma; [4]): 2–3%
Mitoses (M-6 melanoma; [4]): 3–5%
Apoptosis (M-6 melanoma; [5]): 0.2–0.3%
Cells with pigment (M-6 melanoma; [5]): 2–4%
Mitoses (M-6 melanoma; [5]): 3–5%
Necrosis area (M-6 melanoma; [5]): 7–9%
Apoptosis (M-6 melanoma; [6]): 0.2–0.3%
Cells with pigment (M-6 melanoma; [6]): 3–5%
Mitoses (M-6 melanoma; [6]): 3–5%
Necrosis area (M-6 melanoma; [6]): 8–10%
Necrosis area (M-6 melanoma; 1.0 mg/kg intragastrically daily up to 15 days, 12 hours since withdrawal): 6–7%
Myelocytes [3]: 0 in mm^3
